ChEMBL document CHEMBL4251622, “Design, synthesis, and biological evaluation of polo-like kinase 1/eukaryotic elongation factor 2 kinase (PLK1/EEF2K) dual inhibitors for regulating breast cancer cells apoptosis and autophagy” (Eur J Med Chem, 2018)
Activity calls are given as the source filed them. The rule behind the calls is not given here.

How the values were obtained:
[1] = biological target: Fibroblast growth factor receptor 4 (Homo sapiens) (UniProt P22455); experiment: Inhibition of wild-type human partial length FGFR4 (G402 to E713 residues) expressed in bacterial expression system assessed as residual activity at 1 uM by Kinomescan method relative to control
[2] = biological target: Fibroblast growth factor receptor 1 (Homo sapiens) (UniProt P11362); experiment: Inhibition of wild-type human partial length FGFR1 (P357 to V669 residues) expressed in bacterial expression system assessed as residual activity at 1 uM by Kinomescan method relative to control
[3] = biological target: Serine/threonine-protein kinase PLK1 (Homo sapiens, UniProt P53350); experiment: Inhibition of PLK1 autophosphorylation in human BT-483 cells at 5 to 10 uM by Western blot analysis; assay type: cell-based
[4] = biological target: Dual specificity mitogen-activated protein kinase kinase 2 (Homo sapiens) (UniProt P36507); experiment: Inhibition of wild-type human full length MEK2 (M1 to V400 residues) expressed in mammalian expression system assessed as residual activity at 1 uM by Kinomescan method relative to control
BT-483 [5] = experiment: Cell cycle arrest in human BT-483 cells assessed as accumulation at G2/M phase at 5 to 10 uM after 24 to 72 hrs; assay type: functional, cell-based
BT-483 [6] = experiment: Effect on caspase-8 protein expression in human BT-483 cells at 5 to 10 uM by Western blot analysis; assay type: functional, cell-based
[7] = biological target: NUAK family SNF1-like kinase 2 (Homo sapiens) (UniProt Q9H093); experiment: Inhibition of wild-type human partial length SNARK (P22 to A333 residues) expressed in mammalian expression system assessed as residual activity at 1 uM by Kinomescan method relative to control
SK-BR-3 = experiment: Cytotoxicity against human SKBR3 cells after 24 hrs by MTT assay; assay type: functional, cell-based
[8] = biological target: Serine/threonine-protein kinase DCLK1 (Homo sapiens) (UniProt O15075); experiment: Inhibition of wild-type human partial length DCAMKL1 (L270 to A662 residues) expressed in mammalian expression system assessed as residual activity at 1 uM by Kinomescan method relative to control
[9] = biological target: Receptor-interacting serine/threonine-protein kinase 1 (Homo sapiens) (UniProt Q13546); experiment: Inhibition of wild-type human partial length RIPK1 (M1 to K305 residues) expressed in bacterial expression system assessed as residual activity at 1 uM by Kinomescan method relative to control
[10] = biological target: Cyclin-dependent kinase 2 (Homo sapiens) (UniProt P24941); experiment: Inhibition of wild-type human full length CDK2 (M1 to L298 residues) expressed in bacterial expression system assessed as residual activity at 1 uM by Kinomescan method relative to control
[11] = biological target: Angiopoietin-1 receptor (Homo sapiens) (UniProt Q02763); experiment: Inhibition of wild-type human partial length TIE2 (N804 to T1112 residues) expressed in bacterial expression system assessed as residual activity at 1 uM by Kinomescan method relative to control
[12] = biological target: Serine/threonine-protein kinase pim-1 (Homo sapiens) (UniProt P11309); experiment: Inhibition of wild-type human partial length PIM1 (A15 to K313 residues) expressed in bacterial expression system assessed as residual activity at 1 uM by Kinomescan method relative to control
[13] = tested on: Epidermal growth factor receptor (Homo sapiens), P00533 [L858R]; experiment: Inhibition of human partial length EGFR L858R mutant (R669 to V1011 residues) expressed in bacterial expression system assessed as residual activity at 1 uM by Kinomescan method relative to control
BT-483 [14] = experiment: Downregulation of Bcl2 protein expression in human BT-483 cells at 5 to 10 uM by Western blot analysis; assay type: functional, cell-based
BT-483 [15] = experiment: Upregulation of Bad protein expression in human BT-483 cells at 5 to 10 uM by Western blot analysis; assay type: functional, cell-based
[16] = biological target: Serine/threonine-protein kinase B-raf (Homo sapiens) (UniProt P15056); experiment: Inhibition of wild-type human partial length BRAF (S429 to E741 residues) expressed in mammalian expression system assessed as residual activity at 1 uM by Kinomescan method relative to control
[17] = biological target: Macrophage colony-stimulating factor 1 receptor (Homo sapiens) (UniProt P07333); experiment: Inhibition of wild-type human partial length CSF1R (I564 to S939 residues) expressed in bacterial expression system assessed as residual activity at 1 uM by Kinomescan method relative to control
BT-483 [18] = experiment: Cell cycle arrest in human BT-483 cells assessed as accumulation at sub-G1 phase at 5 to 10 uM after 24 to 72 hrs; assay type: functional, cell-based
[19] = biological target: MAP/microtubule affinity-regulating kinase 3 (Homo sapiens) (UniProt P27448); experiment: Inhibition of wild-type human full length MARK3 (M1 to L729 residues) expressed in bacterial expression system assessed as residual activity at 1 uM by Kinomescan method relative to control
BT-483 [20] = experiment: Induction of autophagy in human BT-483 cells transfected with GFP-fused LC3 assessed as aggregation of GFP-LC3 punctures after 6 hrs by DAPI staining based assay; assay type: functional, cell-based
[21] = biological target: Phosphatidylinositol 4,5-bisphosphate 3-kinase catalytic subunit alpha isoform (Homo sapiens) (UniProt P42336); experiment: Inhibition of wild-type human partial length PIK3CA (R108 to N1068 residues) expressed in mammalian expression system assessed as residual activity at 1 uM by Kinomescan method relative to control
[22] = biological target: TGF-beta receptor type-1 (Homo sapiens) (UniProt P36897); experiment: Inhibition of wild-type human partial length TGFBR1 (D179 to M503 residues) expressed in bacterial expression system assessed as residual activity at 1 uM by Kinomescan method relative to control
BT-483 [23] = experiment: Induction of apoptosis in human BT-483 cells assessed as live cells at 10 uM by Annexin V-FITC/propidium iodide staining based flow cytometry (reference value: 87.5%); assay type: functional
[24] = tested on: Tyrosine-protein kinase ABL1 (Homo sapiens), P00519 [E255K]; experiment: Inhibition of human phosphorylated ABL1 E255K mutant (S229 to K512 residues) expressed in mammalian expression system assessed as residual activity at 1 uM by Kinomescan method relative to control
BT-483 [25] = experiment: Induction of apoptosis in human BT-483 cells assessed as live cells at 5 uM by Annexin V-FITC/propidium iodide staining based flow cytometry (reference value: 87.5%); assay type: functional
[26] = biological target: Platelet-derived growth factor receptor beta (Homo sapiens) (UniProt P09619); experiment: Inhibition of wild-type human partial length PDGFRB (V582 to Y1009 residues) expressed in bacterial expression system assessed as residual activity at 1 uM by Kinomescan method relative to control
[27] = biological target: Hepatocyte growth factor receptor (Homo sapiens) (UniProt P08581); experiment: Inhibition of wild-type human partial length MET (D1010 to S1367 residues) expressed in bacterial expression system assessed as residual activity at 1 uM by Kinomescan method relative to control
BT-483 [28] = experiment: Upregulation of cytochrome-c protein expression in human BT-483 cells at 5 to 10 uM by Western blot analysis; assay type: functional, cell-based

With `CCNc1cc(-c2ccc(NC(=O)Nc3cccc(Cl)c3)cc2C(F)(F)F)ccn1` the Activity [1] was 95%, the Activity [2] was 91% and the inhibition [3] was “Active”. The Activity [4] was 67%, the Activity (BT-483 [5]) was “Active” and the Activity (BT-483 [6]) was “inactive”. For the same compound, the Activity [7] was 69%, the Activity (SK-BR-3) was “Active” and the Activity [8] was 98%. For the same compound, the Activity [9] was 62%, the Activity [10] was 98% and the Activity [11] was 94%. For the same compound, the Activity [12] was 66%, the Activity [13] was 99% and the Activity (BT-483 [14]) was “Active”. For the same compound, the Activity (BT-483 [15]) was “Active”, the Activity [16] was 93% and the Activity [17] was 85%. For the same compound, the Activity (BT-483 [18]) was “Active”, the Activity [19] was 90% and the Activity (BT-483 [20]) was “Active”. The Activity [21] was 69%, the Activity [22] was 86% and the Activity (BT-483 [23]) was 78.2%. The Activity [24] was 82%, the Activity (BT-483 [25]) was 86.2% and the Activity [26] was 83%. The Activity [27] was 73% and the Activity (BT-483 [28]) was “Active”.
